Marks after values point to notes of the source that are not given here.
Assays:
[1] = tested on: db/db type 2 diabetic mice; experiment: Reduction of HbA1c in db/db type 2 diabetic mice after chronic treatment (27 day study); format: in vivo
Experimental: This study was done in diabetic mouse model. The animals were divided into three treatment groups—a diabetic control group, a test group and a semaglutide treatment group. Compound 1 of the present disclosure was injected subcutaneously at 0.3 mg/kg dose once a day for 3 days (qd*3) followed by 0.1 mg/kg dose every alternate day for 7 doses (q2d*7) followed by 0.1 mg/kg dose once every four days for two dose cycles (q4d*2). The same dosage regimen was administered in semaglutide treatment group. Measurements of blood glucose levels and body weight were done daily. % HbA1c was measured on Day 0, day 7, day 14 and day 27 by column chromatography. Cumulative food intake was calculated on day 27. % HbA1C data was analyzed by two way ANOVA followed by Bonferroni's posttests using PRISM (Graph Pad version 5.03).

SD rats = experiment: Oral glucose tolerance test (OGTT) in rats; single injection; 1 mg/kg; format: in vivo; parameters: Change in AUC (mg/dL*min): unit not given here; details: for Blood Glucose AUC (mg/dL*min) Mean / Change in AUC (mg/dL*min): 1 mg/Kg; for Blood Glucose AUC (mg/dL*min) Mean: Exp. 1; for Change in AUC (mg/dL*min): Exp. 1, vs control group
Experimental: (§1) Animals were divided into three groups—a normal control group, a test group and a third semaglutide group, with 4 animals in each group. The animals were fasted for 12 hours before initiation of OGTT. To the test group animals, the Compound 1 was injected subcutaneously at 1 mg/kg dose. To the semaglutide group, a dose of 1 mg/kg was injected subcutaneously. After 22 hrs, 166 hrs and 334 hrs of subcutaneous injection of test drug or semaglutide, blood glucose was measured with blood glucose meter (time 0 measurements). All the animals were then given 2 g/kg of glucose solution orally. Blood glucose was measured at 20, 40, 60, 90 and 120 minutes following glucose challenge. Body weight and food intake was recorded. Blood glucose data was analyzed using Two way ANOVA followed by Bonferroni posttests using PRISM (Graph Pad version 5.03). Data of Blood glucose AUC0-120 min, was analyzed using t test.
as §1, with “animals,” for “animals, the”, “1, Compound 13 and Compound 16 were” for “1 was”, “compound” for “drug”

[2] = tested on: db/db mice (diabetic mouse model); experiment: Separate db/db diabetic mouse study, q2d*15 up to day 28, recovery period day 29 to day 45; format: in vivo
Experimental: The study was performed in similar manner as above on diabetic mouse model. The animals were divided into three treatment groups—a diabetic control group, a test group and a semaglutide treatment group. The representative compounds of the present disclosure, Compound 1, Compound 13 and Compound 16, were injected subcutaneously at 3.04 or 6.078 nM dose (every alternate day up to day 28 (q2d*15). The same dosage regimen was administered in semaglutide treatment group. Measurements of blood glucose levels and body weight were done daily. % HbA1c, Insulin was measured on Day 0, day 14 and day 29. Cumulative food intake and body weight change was calculated on day 14 and 29. % HbA1c, Insulin data was analyzed by two way ANOVA followed by Bonferroni's posttests using PRISM (Graph Pad version 5.03). Whereas Blood Glucose AUC, Body weight change and Cumulative food intake data was analyzed by one way ANOVA followed by Bonferroni's posttests using PRISM (Graph Pad version 5.03). From day 29 to day 45, animals were kept on recovery period during which no drug treatment was given. Blood Glucose and Body weight was measured during this period. On day 45, Body weight Changes, % HbA1c, Insulin was measured.

[3] = Food intake and body weight recorded in the rat OGTT study; format: in vivo, rats; details: for Body Weight Change (%) Mean / Food Consumption (g) Mean: Exp. 1
Experimental: as §1
as §1, with “animals,” for “animals, the”, “1, Compound 13 and Compound 16 were” for “1 was”, “compound” for “drug”

[4] = recovery period, earlier dose 6.078 nM
[5] = recovery study, day 45, earlier dose 6.078 nM (6.0788 nM given for Compound 13)
[6] = rats, 1 mg/kg s.c. single injection, Day 2
[7] = rats, 1 mg/kg s.c. single injection, Day 4

With “N-ε^26-[2-(2-[2-(2-[2-(2-[4-(17-Carboxyheptadecanoylamino)-4(S)carboxybutyrylamino]ethoxy) ethoxy]acetylamino)ethoxy]ethoxy)acetyl][(Aib^8, Arg^34, Leu^38 GLP-1(7-38) peptide (HXXXGTFTSDVSSYLXGQAAXEFXAWLVRGRGXX; C18 diacid-gGlu-OEG-OEG on Lys26; Aib8; (2)..(2) Xaa = Aib; (3)..(3) Xaa = absent.; (4)..(4) Xaa = Glu.; (16)..(16) Xaa = Glu.; (21)..(21) Lys is substituted; (24)..(24) Xaa is Ile.; (33)..(33) Xaa is Leu.; (34)..(34) Xaa is absent.) [Compound 1]” the “cumulative food intake vs diabetic control group” value ([1]; db/db mice, 0 to 27th day (FIG. 8)) was “significant reduction in food intake”, the “% HbA1c Mean” value ([1]; db/db mice, Day 0 (before treatment)) was 4.87% and the “% HbA1c % Change vs DC” value ([1]; db/db mice, Day 27, vs Diabetic Control) was −3.57%. For the same substance, the “% HbA1c Mean” value ([1]; db/db mice, Day 27, s.c. 0.3 mg/kg qd*3, 0.1 mg/kg q2d*7, 0.1 mg/kg q4d*2) was 3.73***^## %, the “blood glucose levels vs diabetic control group” value ([1]; db/db mice, chronic treatment (FIG. 7)) was “statistically significant reduction in blood glucose levels” and the “% change in body weight” value ([1]; db/db mice, day 0 to day 27 (FIG. 9)) was −16%. For the same substance, the “blood glucose effect vs semaglutide treatment group” value ([1]; db/db mice, latter phase of the study (FIG. 7)) was “superior to semaglutide treatment group in latter phase of the study”, the “HbA1c level after chronic treatment” value ([1]; db/db type 2 diabetic mice, 27 day study) was “statistically significant reduction in HbA1c level” and the “Blood Glucose AUC (mg/dL*min) Mean” value (SD rats; OGTT, 22 hr) was 3173.0 mg·min/dL. The “Change in AUC (mg/dL*min)” value (SD rats; OGTT, 22 hr) was −78.7, the “Blood Glucose AUC (mg/dL*min) Mean” value (SD rats; OGTT, 168 hr) was 5941.0 mg·min/dL and the “Change in AUC (mg/dL*min)” value (SD rats; OGTT, 168 hr) was −65.4. The “Blood Glucose AUC (mg/dL*min) Mean” value (SD rats; OGTT, 336 hr) was 11920.0 mg·min/dL, the “Change in AUC (mg/dL*min)” value (SD rats; OGTT, 336 hr) was −28.3 and the “blood glucose level vs normal control” value (SD rats; OGTT, 22 hours after single dosing, 1 mg/kg s.c. (FIG. 6A)) was “statistically significant reduction in blood glucose level”. For the same substance, the “glucose lowering effect vs semaglutide” value (SD rats; OGTT, after 22 hrs, 1 mg/kg s.c. (FIG. 6A)) was “superior to the glucose lowering effect observed with semaglutide”, the “glucose lowering effect vs semaglutide” value (SD rats; OGTT, after 46 hours of subcutaneous administration (FIG. 6B)) was “superiority of glucose lowering effect” and the “reduction in blood glucose AUC” value (SD rats; after 168 hrs of injection, 1 mg/kg) was “about 60%”. For the same substance, the “Blood Glucose AUC (Day 0-29) % Change Vs Control” value ([2]; 6.078 nM, q2d*15) was −45.75%, the “Blood Glucose AUC (Day 0-29) (mg/dL*days) Mean” value ([2]; 6.078 nM, q2d*15) was 9194.6*** mg/dL*days and the “Body Weight Change Day 29, % Change vs Day 0 Mean” value ([2]; 6.078 nM, q2d*15) was −0.3%. The “Cumulative Food Intake (g) Day 0-29 Mean” value ([2]; 6.078 nM, q2d*15) was 79.8 g, the “% HbA1C Mean” value ([2]; Day 0, 6.078 nM, q2d*15) was 7.8% and the “Insulin (ng/mL) Mean” value ([2]; Day 0, 6.078 nM, q2d*15) was 18.0 ng/mL. The “% HbA1C Mean” value ([2]; Day 14, 6.078 nM, q2d*15) was 6.4 ** %, the “Insulin (ng/mL) Mean” value ([2]; Day 14, 6.078 nM, q2d*15) was 58.1** ng/mL and the “% HbA1C Mean” value ([2]; Day 29, 6.078 nM, q2d*15) was 6.2 *** %. The “Insulin (ng/mL) Mean” value ([2]; Day 29, 6.078 nM, q2d*15) was 54.7** ng/mL, the “HbA1c, blood glucose, food consumption and body weight vs control” value ([2]; about 3 nM and 6 nM dose) was “significant reduction” and the “Blood Glucose AUC (Day 30-37) % Change vs Control” value [2, 4] was −22.39%. For the same substance, the “Blood Glucose AUC (Day 30-37) (mg/dL*days) Mean” value [2, 4] was 2787.3* mg/dL*days, the “Blood Glucose AUC (Day 38-45) % Change vs Control” value [2, 4] was −7.39% and the “Blood Glucose AUC (Day 38-45) (mg/dL*days) Mean” value [2, 4] was 3335.7 mg·days/dL. The “% HbA1C Mean” value [2, 5] was 7.6%, the “Delta HbA1C vs. DC” value [2, 5] was −0.9 and the “Insulin (ng/mL) Mean” value [2, 5] was 30.9 ng/mL. The “Body Weight % Change vs Day 45 Mean” value ([2]; recovery study, earlier dose 6.078 nM (6.0788 nM given for Compound 13)) was 5.9%, the “Body Weight Change (%) Mean” value ([3]; 1 mg/Kg, 48 h) was −9.8% and the “Food Consumption (g) Mean” value ([3]; 1 mg/Kg, 48 h) was 8.3 g. The “Body Weight Change (%) Mean” value ([3]; 1 mg/Kg, 154 h) was 5.2%, the “Food Consumption (g) Mean” value ([3]; 1 mg/Kg, 154 h) was 69.6 g and the “Body Weight Change (%) Mean” value ([3]; 1 mg/Kg, 324 h) was 9.3%. The “Food Consumption (g) Mean” value ([3]; 1 mg/Kg, 324 h) was 99.4 g, the “food consumed vs animals administered with semaglutide” value ([3]; 1 mg/Kg, text on Table 8) was “consumed significantly less food” and the “Body Weight (Day 2) % Change vs Baseline” value [3, 6] was −9.33%. For the same substance, the “Body Weight (g) (Day 2) Mean” value [3, 6] was 365.6 g, the “Body Weight (Day 4) % Change vs Baseline” value [3, 7] was −7.5% and the “Body Weight (g) (Day 4) Mean” value [3, 7] was 436.2* g. The “Food Consumption (g) (day 0 to day 2) Mean” value ([3]; rats, 1 mg/kg s.c. single injection, day 0 to day 2) was 2.63*** g and the “Food Consumption (g) (day 0 to day 4) Mean” value ([3]; rats, 1 mg/kg s.c. single injection, day 0 to day 4) was 43.25***^,## g.

Source: US11447535B2, “GLP-1 analogues” (Sun Pharmaceutical Industries Limited, priority 2018, dated 2022)
